Test results taken from article PMC3433650 (Journal of neurochemistry, 2012).

Tested on: rat and human α9α10 nAChRs
Assay: ACh-evoked currents in Xenopus oocytes expressing rat or human α9α10 nAChRs
Type: cell-based
Conditions: 100 µM ACh

## CC(=O)OCC[N+](C)(C)C [ACh, Acetylcholine chloride]
  ACh-evoked current, rat vs human α9α10 (in words): generally evoked larger currents in Xenopus oocytes expressing rat α9α10 nAChRs than in oocytes expressing human α9α10 nAChRs
